pIC50: −log10 of the molar value.
These molecules were tested on HCT-116 human colorectal carcinoma cells (assay: Cell proliferation assay, Alamar Blue, HCT-116). Settings: HCT-116, Table 16, second HCT-116 column.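 Note: cells exposed to compound for about 4 days, then Alamar Blue added and fluorescence read after about 4 h, medium-only wells as control.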
Type: cell-based

pIC50	SMILES
6.08	O=C(O)c1ccc2c(c1)nc(Nc1ccc(F)c(F)c1)c1ccsc12
< 5.00	CCOc1cccc(Nc2nc3cc(C(=O)O)ccc3c3sccc23)c1
< 5.00	CN(C)CCNC(=O)c1cccc(Nc2nc3cc(-c4nnn[nH]4)ccc3c3sccc23)c1
< 5.00	O=C(O)c1ccc2c(c1)nc(Nc1cccc(C(F)(F)F)c1)c1ccsc12
< 5.00	O=C(c1cccc(Nc2nc3cc(-c4nnn[nH]4)ccc3c3sccc23)c1)N1CCOCC1
< 5.00	O=C(O)c1ccc2c(c1)nc(Nc1cc(F)cc(C(F)(F)F)c1)c1ccsc12
< 5.00	O=C(O)c1ccc2c(c1)nc(Nc1cccc(Br)c1)c1ccsc12
< 5.00	CNS(=O)(=O)c1cccc(Nc2nc3cc(C(=O)O)ccc3c3sccc23)c1
< 5.00	COCCNC(=O)c1cccc(Nc2nc3cc(-c4nnn[nH]4)ccc3c3sccc23)c1
< 5.00	Cc1cccc(Nc2nc3cc(C(=O)O)ccc3c3sccc23)c1
< 5.00	O=C(O)c1ccc2c(c1)nc(Nc1cccc(Cl)c1F)c1ccsc12
< 5.00	Fc1cc(F)cc(Nc2nc3cc(-c4nnn[nH]4)ccc3c3sccc23)c1
< 5.00	O=C(O)c1cc(F)cc(Nc2nc3cc(C(=O)O)ccc3c3sccc23)c1
< 5.00	O=C(O)c1ccc2c(c1)nc(Nc1cc(F)ccc1F)c1ccsc12
< 5.00	O=C(O)c1ccc2c(c1)nc(Nc1cccc(F)c1F)c1ccsc12
< 5.00	COC(=O)CNC(=O)c1cccc(Nc2nc3cc(-c4nnn[nH]4)ccc3c3sccc23)c1
< 5.00	O=C(O)c1ccc2c(c1)nc(Nc1ccc3cc[nH]c3c1)c1ccsc12
< 5.00	NS(=O)(=O)c1cccc(Nc2nc3cc(-c4nnn[nH]4)ccc3c3sccc23)c1

Same assay, conditions: HCT-116, Table 18

pIC50	SMILES
< 5.00	O=C(O)c1ccc2c(c1)nc(NCc1ccccc1)c1nc(NC3CC3)ncc12 [drawing 1084]
< 5.00	Nc1ncc2c(n1)c(NC1CC1)nc1cc(C(=O)O)ccc12 [drawing 1102]
< 5.00	O=C(O)c1ccc2c(c1)nc(NCc1ccccc1)c1ccncc12 [drawing 1020]
< 5.00	O=C(O)c1ccc2c(c1)nc(NCc1cccnc1)c1nc(NC3CC3)ncc12 [drawing 1083]
< 5.00	O=C(O)c1ccc2c(c1)nc(NC1CC1)c1ccncc12 [drawing 1097]
< 5.00	Cc1cc(Nc2ncc3c(n2)c(Nc2ccc(F)c(Cl)c2)nc2cc(C(=O)O)ccc23)[nH]n1 [drawing 1093]
< 5.00	CCOc1ncc2c(n1)c(NC1CC1)nc1cc(C(=O)O)ccc12 [drawing 1073]

The molecules below were run on MiaPaca human pancreatic carcinoma cells (assay: Cell proliferation assay, Alamar Blue, MiaPaca). Settings: MIA PaCa-2, Table 16.
Type: cell-based
Description: A representative cell-proliferation assay protocol using Alamar Blue dye (stored at 4° C., use 20 ul per well) is described hereafter.
c. Plate 4,000-5,000 cells per well in 100 μl of medium and seed into a 96-well plate according to the following plate layout. Add cell culture medium only to wells B10 to B12. Wells B1 to B9 have cells but no compound added.
d. Add 100 μl of 2× drug dilution to each well in a concentration shown in the plate layout above. At the same time, add 100 μl of media into the control wells (wells B10 to B12). Total volume is 200 μl/well.
e. Incubate four (4) days at 37° C., 5% CO2 in a humidified incubator.
f. Add 20 μl Alamar Blue reagent to each well.
g. Incubate for four (4) hours at 37° C., 5% CO2 in a humidified incubator.
h. Record fluorescence at an excitation wavelength of 544 nm and emission wavelength of 590 nm using a microplate reader.
In the assays, cells are cultured with a test compound for approximately four days, the dye then is added to the cells and fluorescence of […] dye is detected after approximately four hours. Different types of cells can be utilized in the assays (e.g., HCT-116 human colorectal carcinoma cells, PC-3 human prostatic cancer cells and MiaPaca human pancreatic carcinoma cells). Anti-proliferative effects of representative compounds are provided hereafter.

pIC50	SMILES
< 5.00	O=C(O)c1ccc2c(c1)nc(Nc1ccc(F)c(F)c1)c1ccsc12
< 5.00	CCOc1cccc(Nc2nc3cc(C(=O)O)ccc3c3sccc23)c1
< 5.00	CN(C)CCNC(=O)c1cccc(Nc2nc3cc(-c4nnn[nH]4)ccc3c3sccc23)c1
< 5.00	O=C(O)c1ccc2c(c1)nc(Nc1cccc(C(F)(F)F)c1)c1ccsc12
< 5.00	O=C(O)c1ccc2c(c1)nc(Nc1cccc(-c3ccccc3)c1)c1ccsc12
< 5.00	O=C(c1cccc(Nc2nc3cc(-c4nnn[nH]4)ccc3c3sccc23)c1)N1CCOCC1
< 5.00	O=C(O)c1ccc2c(c1)nc(Nc1cc(F)cc(C(F)(F)F)c1)c1ccsc12
< 5.00	O=C(O)c1ccc2c(c1)nc(Nc1cccc(Br)c1)c1ccsc12
< 5.00	CNS(=O)(=O)c1cccc(Nc2nc3cc(C(=O)O)ccc3c3sccc23)c1
< 5.00	COCCNC(=O)c1cccc(Nc2nc3cc(-c4nnn[nH]4)ccc3c3sccc23)c1
< 5.00	Cc1cccc(Nc2nc3cc(C(=O)O)ccc3c3sccc23)c1
< 5.00	O=C(O)c1ccc2c(c1)nc(Nc1cccc(Cl)c1F)c1ccsc12
< 5.00	Fc1cc(F)cc(Nc2nc3cc(-c4nnn[nH]4)ccc3c3sccc23)c1
< 5.00	O=C(O)c1cc(F)cc(Nc2nc3cc(C(=O)O)ccc3c3sccc23)c1
< 5.00	O=C(O)c1ccc2c(c1)nc(Nc1cc(F)ccc1F)c1ccsc12
< 5.00	O=C(O)c1ccc2c(c1)nc(Nc1cccc(F)c1F)c1ccsc12
< 5.00	CC(C)(C)OC(=O)CCNC(=O)c1cccc(Nc2nc3cc(-c4nnn[nH]4)ccc3c3sccc23)c1
< 5.00	COC(=O)CNC(=O)c1cccc(Nc2nc3cc(-c4nnn[nH]4)ccc3c3sccc23)c1
< 5.00	O=C(O)c1ccc2c(c1)nc(Nc1ccc3cc[nH]c3c1)c1ccsc12
< 5.00	NS(=O)(=O)c1cccc(Nc2nc3cc(-c4nnn[nH]4)ccc3c3sccc23)c1
< 5.00	O=C(O)c1cccc(Nc2nc3cc(-c4nnn[nH]4)ccc3c3sccc23)c1

Same assay, conditions: MIA PaCa-2, Table 18

pIC50	SMILES
< 4.30	CN(C)c1ncc2c(n1)c(Nc1cccc(Cl)c1)nc1cc(C(=O)O)ccc12
4.89	O=C(O)c1ccc2c(c1)nc(NCc1ccccc1)c1nc(NC3CC3)ncc12 [drawing 1084]
< 4.30	Nc1ncc2c(n1)c(NC1CC1)nc1cc(C(=O)O)ccc12 [drawing 1102]
< 4.30	CN(C)CCNc1nc2cc(C(=O)O)ccc2c2cnc(NC3CC3)nc12 [drawing 1100]
4.51	O=C(O)c1ccc2c(c1)nc(NCc1ccccc1)c1ccncc12 [drawing 1020]
4.86	O=C(O)c1ccc2c(c1)nc(NCc1cccnc1)c1nc(NC3CC3)ncc12 [drawing 1083]
4.58	O=C(O)c1ccc2c(c1)nc(NC1CC1)c1ccncc12 [drawing 1097]
4.74	Cc1cc(Nc2ncc3c(n2)c(Nc2ccc(F)c(Cl)c2)nc2cc(C(=O)O)ccc23)[nH]n1 [drawing 1093]
< 4.30	CCOc1ncc2c(n1)c(NC1CC1)nc1cc(C(=O)O)ccc12 [drawing 1073]
< 4.30	COC(=O)c1ccc2c(c1)nc(NC1CC1)c1nc(SC)ncc12 [drawing 1099]

— patent US9062043B2, “Fused tricyclic compounds as serine-threonine protein kinase and PARP modulators” (SENHWA BIOSCIENCES, INC., priority 2006, dated 2015)
